Results on 2 compounds are retold here after patent US8084489B2 (Eli Lilly and Company, priority 2005, dated 2011).

The assay has as its target cloned human glucagon receptor (Homo sapiens, UniProt P47871). Briefly: Glucagon Receptor (hGlucR) Binding Assay.

The structures appear in SMILES notation.

Sequence of cloned human glucagon receptor (P47871 26-477): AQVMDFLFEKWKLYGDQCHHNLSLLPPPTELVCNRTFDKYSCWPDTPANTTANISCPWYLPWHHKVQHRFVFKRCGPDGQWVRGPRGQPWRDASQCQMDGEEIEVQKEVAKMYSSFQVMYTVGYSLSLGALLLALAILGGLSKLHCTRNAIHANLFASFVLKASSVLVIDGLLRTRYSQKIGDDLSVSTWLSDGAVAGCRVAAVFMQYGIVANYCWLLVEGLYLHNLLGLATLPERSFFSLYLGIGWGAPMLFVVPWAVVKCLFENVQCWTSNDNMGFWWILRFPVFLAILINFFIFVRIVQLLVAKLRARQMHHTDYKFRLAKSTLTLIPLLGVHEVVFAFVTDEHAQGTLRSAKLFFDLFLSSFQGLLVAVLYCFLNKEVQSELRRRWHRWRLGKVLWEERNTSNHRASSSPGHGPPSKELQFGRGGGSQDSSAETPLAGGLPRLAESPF
Protocol: This plasmid DNA was transfected into 293 HEK cells and selected with 200 ug/ml Hygromycin.
Crude plasma membranes are prepared using cells from suspension culture. The cells are lysed on ice in hypotonic buffer containing 25 mM Tris HCL, pH 7.5, 1 mM MgCl2, DNAse1, 20 u/ml, and Roche Complete Inhibitors-without EDTA. The cell suspension is homogenized with a glass dounce homogenizer using a Teflon pestle for 25 strokes. The homogenate is centrifuged at 4 degrees C. at 1800×g for 15 mins. The supernate is collected and the pellet is resuspended in hypotonic buffer and rehomogenized. The mixture is centrifuged at 1800×g for 15 mins. The second supernate is combined with the first supernate. The combined supernates are recentrifuged at 1800×g for 15 mins to clarify. The clarified supernate is transferred to high speed tubes and centrifuged at 25000×g for 30 minutes at 4 degrees C. The membrane pellet is resuspended in homogenization buffer and stored as frozen aliquots at −80 degree C. freezer until needed.
The specific activity is 2200 Ci/mmol.
The binding buffer contains 25 mM Hepes, pH 7.4, 2.5 mM CaCl2, 1 mM MgCl2, 0.1% fatty acid free BSA, (ICN), 0.003% tween-20, and Roche Complete Inhibitors without EDTA. […] Test compounds are dissolved in DMSO and serially diluted in DMSO. […] Plates are read with a MicroBeta after 14 hours of settling time at room temp. […]

As for `CC(C)CC(Oc1ccc(-c2ccc(C(F)(F)F)cc2)cc1)c1ccc(C(=O)NCCC(=O)O)s1` (centres unmarked), the inhibition constant Ki (commonly the equilibrium dissociation constant of an inhibitor or competing ligand from its target) came out at 390 nM.

Regarding `CC(C)CC(Oc1ccc(-c2ccc(C(C)(C)C)cc2)nc1)c1ccc(C(=O)NCCC(=O)O)s1` (centres unmarked), the inhibitory constant (Ki) is 296 nM.
